Converted amounts (≈) assume the structure as drawn. Like-named read-outs stand apart in the source and are kept apart here.
How the values were obtained:
[1] = system: Candida albicans ATCC MYA-2876; assay: Minimal inhibitory concentration (MIC) test on fungal growth (CLSI M27, yeasts); assay type: cell-based; conditions: for MIC: Candida albicans, read-out: MIC Candida albicans ATCC MYA-2876
Description: (§1) • RPMI1640 medium: Brand: Gibco, article number: 31800-014 • Sabouraud dextrose agar (SDA): Brand: Hope Bio, article number: HB0253-81 • Voriconazole: Brand: Adamas, article number: 22105A • Amphotericin B: Brand: AbCam, article number: ab141199
(§2) MIC test was conducted in accordance with the guidelines and requirements of CLSI M27 (for yeasts) and M38 (for Aspergillus).
(§3) Strain preparation: The strains were inoculated 1 day in advance by streaking on SDA plates with glycerol strains stored at −80° C. The strains were cultured at 35° C. and 40 to 60% humidity for 18 to 24 hours. Streak inoculation of Aspergillus fumigatus and Cryptococcus neoformans was required to be done 3 days and 2 days in advance, respectively.
(§4) Preparation of culture medium and compounds: The liquid culture medium RPMI was prepared with pure water, and 0.165 mol/L MOPS was added to adjust the pH to 7.0. The mixture was filtered with a 0.22 μm-membrane filter, sterilized, and stored at 4° C. (no more than 3 months). 0.85% physiological saline was sterilized at 121° C. for 30 min and then stored at room temperature (no more than 1 week). The compounds were dissolved in DMSO to 12.8 mg/mL and stored at −20° C.
For yeast, 3 to 5 colonies were selected from the SDA plate on the day of testing and fully suspended in 5 mL of sterilized 0.85% physiological saline. The turbidity of the bacterial suspension was measured with a turbidimeter, and the turbidity was adjusted to approximately 0.2. The bacterial suspension was 50-fold and 20-fold (1000-fold in total) diluted in RPMI1640 medium, respectively, to serve as the inoculum. The final inoculum concentration was 500 to 2500 CFU/mL.
(§5) The compound was diluted to the highest 800 μg/mL (or 400 μg/mL) with DMSO, and a 10-step 2-fold gradient dilution was performed, resulting in 11 concentrations. 2 μL of the gradient-diluted compound was transferred to the corresponding wells of a 96-well plate, and then 198 μL of the inoculum was transferred to the test plate. The plate was incubated at 35° C. for 24 hours (Aspergillus fumigatus and Cryptococcus neoformans were incubated for 48 and 72 hours, respectively).
(§6) After the incubation, the growth of the fungi was visually observed. The lowest concentration of the compound that inhibited the growth of yeast by 50% (inhibited Aspergillus by 100%) was defined as the minimum inhibitory concentration (MIC, μg/mL). A magnifying glass or reading at OD530 nm could be used to assist in determining the MIC. Photos were taken of the test plates for record keeping.

[2] = system: Aspergillus fumigatus ATCC MYA-4609; assay: Minimal inhibitory concentration (MIC) test on fungal growth (CLSI M38, Aspergillus); assay type: cell-based; conditions: for MIC: Aspergillus fumigatus, read-out: MIC Aspergillus fumigatus ATCC MYA-4609
Description: as §1, §2, §3, §4
For Aspergillus, 5 mL of physiological saline was added to cover the mycelium, and the spores were gently scraped off with a spreader. The spore suspension was then transferred to a sterile test tube. An appropriate amount of spore suspension was taken and counted under a microscope using a hemocytometer. Spore concentration was adjusted to approximately 0.4 to 5×10^4 spores/mL using RPMI1640 medium.
as §5, §6

[3] = lowest concentration inhibiting growth of yeast by 50%, 35° C., 24 hours, RPMI1640
[4] = lowest concentration inhibiting Aspergillus by 100%, 35° C., 48 hours, RPMI1640

SMILES: O[C@H](COc1ccc(C23CC(C(F)(F)C(O)(Cn4cnnn4)c4cc(F)ccc4F)(C2)C3)cc1)C(F)(F)F (stereo in doubt) [Compound 165]
- MIC [1, 3]: 0.03 mg/L (≈ 0.0549 µM)
- MIC [2, 4]: 4 mg/L (≈ 7.32 µM)

SMILES: OC(Cn1cnnn1)(c1ccc(F)cc1F)C(F)(F)C12CC(c3ccc(OCCN4CCOCC4)cc3)(C1)C2 (stereo not shown) [Compound 65]
- MIC ([1]; 24 h): 0.0078 mg/L (≈ 0.0142 µM)
- MIC ([2]; 48 h): 32 mg/L (≈ 58.4 µM)

SMILES: COCCCOc1ccc(C23CC(C(F)(F)C(O)(Cn4cnnn4)c4ccc(F)cc4F)(C2)C3)cc1 (stereo not shown) [Compound 61]
- MIC [1, 3]: 0.016 mg/L (≈ 0.0316 µM)
- MIC [2, 4]: 8 mg/L (≈ 15.8 µM)

SMILES: O[C@H](COc1ccc(C23CC(C(F)(F)[C@](O)(Cn4cncn4)c4ccc(F)cc4F)(C2)C3)cn1)C(F)(F)F [Compound 98A]
- MIC Candida albicans ATCC MYA-2876 [1, 3]: ≤0.0039 mg/L
- MIC Aspergillus fumigatus ATCC MYA-4609 [2, 4]: 1 mg/L (≈ 1.83 µM)

SMILES: OC(Cn1cnnn1)(c1ccc(F)cc1F)C(F)(F)C12CC(c3ccc(OCC(F)(F)F)cc3)(C1)C2 (stereo not shown) [Compound 3]
- MIC [1, 3]: 0.03 mg/L (≈ 0.0581 µM)
- MIC [2, 4]: 2 mg/L (≈ 3.87 µM)

SMILES: O[C@](Cn1cnnn1)(c1ccc(Cl)cc1F)C(F)(F)C12CC(c3ccc(OCC(F)(F)F)cc3)(C1)C2 [Compound 7B]
- MIC [1, 3]: 2 mg/L (≈ 3.75 µM)
- MIC [2, 4]: 1 mg/L (≈ 1.88 µM)

SMILES: OC(COc1ccc(C23CC(C(F)(F)C(O)(Cn4cnnn4)c4ccc(F)cc4F)(C2)C3)cc1)C(F)F (stereo not shown) [Compound 137]
- MIC [1, 3]: ≤ 0.0039 mg/L
- MIC [2, 4]: 8 mg/L (≈ 15.1 µM)

SMILES: O[C@](Cn1cncn1)(CC12CC(c3ccc(OCC(F)(F)F)cc3)(C1)C2)c1ccc(F)cc1F [Compound 49A]
- MIC [1, 3]: ≤ 0.0039 mg/L
- MIC [2, 4]: 0.5 mg/L (≈ 1.04 µM)

SMILES: Oc1ccc(C23CC(C(F)(F)[C@](O)(Cn4cncn4)c4ccc(F)cc4F)(C2)C3)cc1 [Compound 21A]
- MIC [1, 3]: ≤ 0.0039 mg/L
- MIC [2, 4]: 1 mg/L (≈ 2.31 µM)

SMILES: COc1ccc(C23CC(C(F)(F)C(O)(Cn4cnnn4)c4ccc(F)cc4F)(C2)C3)cc1 (stereo not shown) [Compound 1]
- MIC [1, 3]: 0.015 mg/L (≈ 0.0335 µM)
- MIC [2, 4]: 8 mg/L (≈ 17.8 µM)

SMILES: OC1(COc2ccc(C34CC(C(F)(F)[C@](O)(Cn5cnnn5)c5ccc(F)cc5F)(C3)C4)cc2)CC(F)(F)C1 [Compound 149A]
- MIC [1, 3]: ≤ 0.0039 mg/L
- MIC [2, 4]: 2 mg/L (≈ 3.61 µM)

SMILES: CNC(=O)COc1ccc(C23CC(C(F)(F)C(O)(Cn4cncn4)c4ccc(F)cc4F)(C2)C3)cc1 (stereo not shown) [Compound 35]
- MIC [1, 3]: ≤ 0.0039 mg/L
- MIC [2, 4]: 2 mg/L (≈ 3.96 µM)

SMILES: COc1ccc(C23CC(C(F)(F)[C@@](O)(Cn4cnnn4)c4ccc(F)cc4F)(C2)C3)cc1 (stereo in doubt) [Compound 1B]
- MIC [1, 3]: 0.5 mg/L (≈ 1.12 µM)

SMILES: N#Cc1ccc(C23CC(C[C@](O)(Cn4cncn4)c4ccc(F)cc4F)(C2)C3)cc1 (stereo in doubt) [Compound 91A]
- MIC [1, 3]: ≤ 0.0039 mg/L

SMILES: O[C@](Cn1cncn1)(c1ccc(F)cc1F)C(F)(F)C12CC(c3ccc(OCC(F)(F)F)cc3)(C1)C2 (stereo in doubt) [Compound 2B]
- MIC [1, 3]: 0.25 mg/L (≈ 0.485 µM)

SMILES: O[C@](Cn1cnnn1)(c1ccc(F)cc1F)C(F)(F)C12CC(c3ccc(Cl)cc3)(C1)C2 [Compound 32B]
- MIC [1, 3]: 0.06 mg/L (≈ 0.132 µM)

SMILES: OC(Cn1cnnn1)(c1ccc(F)cc1F)C(F)(F)C12CC(c3ccc(OC(F)(F)F)cc3)(C1)C2 (stereo not shown) [Compound 24]
- MIC [1, 3]: 0.03 mg/L (≈ 0.0597 µM)

SMILES: CC(C)NC[C@H](O)COc1ccc(C23CC(C(F)(F)C(O)(Cn4cnnn4)c4ccc(F)cc4F)(C2)C3)cc1 (stereo partly shown) [Compound 53]
- MIC [1, 3]: 0.5 mg/L (≈ 0.91 µM)

SMILES: N[C@@](Cn1cnnn1)(c1ccc(F)cc1F)C(F)(F)C12CC(c3ccc(OCC(F)(F)F)cc3)(C1)C2 (stereo in doubt) [Compound 4A]
- MIC [1, 3]: 0.06 mg/L (≈ 0.116 µM)

SMILES: OC(Cn1cncn1)(c1ccc(F)cc1F)C(F)(F)C12CC(C1)C2 (stereo not shown) [Compound 10]
- MIC [1, 3]: ≤ 0.0039 mg/L

SMILES: OC(Cn1cnnn1)(c1ccc(F)cc1F)C(F)(F)C12CC(c3ccc(OC4CNC4)cc3)(C1)C2 (stereo not shown) [Compound 44]
- MIC [1, 3]: 0.06 mg/L (≈ 0.123 µM)

SMILES: CS(=O)(=O)CC(O)COc1ccc(C23CC(C(F)(F)C(O)(Cn4cnnn4)c4ccc(F)cc4F)(C2)C3)cc1 (stereo not shown) [Compound 141]
- MIC [1, 3]: 0.06 mg/L (≈ 0.105 µM)

SMILES: OC(Cn1cnnn1)(c1ccc(F)cc1F)C(F)(F)C12CC(c3ccc(OCC(F)(F)F)nc3)(C1)C2 (stereo not shown) [Compound 46]
- MIC [1, 3]: 0.03 mg/L (≈ 0.058 µM)

SMILES: OC(Cn1cncn1)(c1ccc(F)cc1F)C(F)(F)C12CC(c3ccc(OCC(F)(F)F)nc3)(C1)C2 (stereo not shown) [Compound 47]
- MIC [1, 3]: 0.0078 mg/L (≈ 0.0151 µM)

SMILES: CN1CCN(c2ccc(C34CC(C(F)(F)C(O)(Cn5cnnn5)c5ccc(F)cc5F)(C3)C4)cn2)CC1 (stereo not shown) [Compound 117]
- MIC [1, 3]: 0.06 mg/L (≈ 0.116 µM)
